Assays:
[1] = system: A. fumigatus-infected C57BL/6 and Cftr−/− mice; test: IL-1 cytokine levels in BAL by ELISA in CF mice with aspergillosis; type: in vivo; settings: 200 μg/kg/i.p. daily 6 days, 7 days post-infection
Description: Mice. Wild-type (WT) inbred C57BL6 mice, 8 to 12 weeks old, were purchased from Charles River Breeding Laboratories (Calco, Italy). Genetically engineered homozygote Cftr^−/− mice (33) were bred at the Cystic Fibrosis core animal facility at San Raffaele Hospital, Milan, Italy. Experiments were performed following protocols approved by the institutional animal committee and in accordance with European Economic Community Council Directive as well as institutional animal care and use guidelines.
Infection and treatments. Mice were anesthetized by i.p. injection of 2.5% avertin (Sigma Chemical Co, St. Louis, MO) before intranasal instillation of 2×10^7 A. fumigatus (Af293) resting conidia/20 μl saline. For histology, paraffin-embedded tissue were stained with Periodic acid-Schiff (PAS), and BAL fluid collection was done as described (21, 22). Treatments were as follow: Tα1 and the scrambled polypeptide were supplied as purified (the endotoxin levels were <0.03 pg/ml, by a standard limulus lysate assay) sterile, lyophilized, acetylated polypeptide. The sequences were as follows: Ac-[…]O (Tα1) (SEQ ID NO:1) and Ac-[…]OH (scrambled peptide) (SEQ ID NO:2). The lyophilized powders were reconstituted in sterile water and 200 μg/kg/i.p. were given daily for 6 consecutive days beginning the day of the infection.
Cytokine determination by ELISA. Cytokine levels in lung homogenates from treated and untreated mice were determined by cytokine-specific ELISA (R&D Systems, Inc. Space Import-Export srl, Milan, Italy) as described (21, 22)
C57BL/6 and Cftr^−/− mice were infected intranasally with live A. fumigatus conidia and treated with 200 μg/kg/i.p. Tα1 daily for 6 consecutive days beginning the day of the infection. […] The levels of IL-1β, IL-1α and IL-1RA in the BAL were measured by ELISA (pg/ml) at 7 days post-infection. The results shown represent pooled data from two experiments. *P<0.05; **P<0.01; ***P<0.001.

TMEM16A = test: DNA microarray analysis of mice with pulmonary aspergillosis; type: in vivo; settings: unpublished results
ΔF508 CFTR = ΔF508 CFTR (Homo sapiens, UniProt P13569, DEL508-508); test: Chloride permeability by SPQ fluorescence assay upon forskolin stimulation, HBE cells from CF patients; type: cell-based
ΔF508 CFTR, sequence (P13569 with tags, fused parts or gaps DEL508-508): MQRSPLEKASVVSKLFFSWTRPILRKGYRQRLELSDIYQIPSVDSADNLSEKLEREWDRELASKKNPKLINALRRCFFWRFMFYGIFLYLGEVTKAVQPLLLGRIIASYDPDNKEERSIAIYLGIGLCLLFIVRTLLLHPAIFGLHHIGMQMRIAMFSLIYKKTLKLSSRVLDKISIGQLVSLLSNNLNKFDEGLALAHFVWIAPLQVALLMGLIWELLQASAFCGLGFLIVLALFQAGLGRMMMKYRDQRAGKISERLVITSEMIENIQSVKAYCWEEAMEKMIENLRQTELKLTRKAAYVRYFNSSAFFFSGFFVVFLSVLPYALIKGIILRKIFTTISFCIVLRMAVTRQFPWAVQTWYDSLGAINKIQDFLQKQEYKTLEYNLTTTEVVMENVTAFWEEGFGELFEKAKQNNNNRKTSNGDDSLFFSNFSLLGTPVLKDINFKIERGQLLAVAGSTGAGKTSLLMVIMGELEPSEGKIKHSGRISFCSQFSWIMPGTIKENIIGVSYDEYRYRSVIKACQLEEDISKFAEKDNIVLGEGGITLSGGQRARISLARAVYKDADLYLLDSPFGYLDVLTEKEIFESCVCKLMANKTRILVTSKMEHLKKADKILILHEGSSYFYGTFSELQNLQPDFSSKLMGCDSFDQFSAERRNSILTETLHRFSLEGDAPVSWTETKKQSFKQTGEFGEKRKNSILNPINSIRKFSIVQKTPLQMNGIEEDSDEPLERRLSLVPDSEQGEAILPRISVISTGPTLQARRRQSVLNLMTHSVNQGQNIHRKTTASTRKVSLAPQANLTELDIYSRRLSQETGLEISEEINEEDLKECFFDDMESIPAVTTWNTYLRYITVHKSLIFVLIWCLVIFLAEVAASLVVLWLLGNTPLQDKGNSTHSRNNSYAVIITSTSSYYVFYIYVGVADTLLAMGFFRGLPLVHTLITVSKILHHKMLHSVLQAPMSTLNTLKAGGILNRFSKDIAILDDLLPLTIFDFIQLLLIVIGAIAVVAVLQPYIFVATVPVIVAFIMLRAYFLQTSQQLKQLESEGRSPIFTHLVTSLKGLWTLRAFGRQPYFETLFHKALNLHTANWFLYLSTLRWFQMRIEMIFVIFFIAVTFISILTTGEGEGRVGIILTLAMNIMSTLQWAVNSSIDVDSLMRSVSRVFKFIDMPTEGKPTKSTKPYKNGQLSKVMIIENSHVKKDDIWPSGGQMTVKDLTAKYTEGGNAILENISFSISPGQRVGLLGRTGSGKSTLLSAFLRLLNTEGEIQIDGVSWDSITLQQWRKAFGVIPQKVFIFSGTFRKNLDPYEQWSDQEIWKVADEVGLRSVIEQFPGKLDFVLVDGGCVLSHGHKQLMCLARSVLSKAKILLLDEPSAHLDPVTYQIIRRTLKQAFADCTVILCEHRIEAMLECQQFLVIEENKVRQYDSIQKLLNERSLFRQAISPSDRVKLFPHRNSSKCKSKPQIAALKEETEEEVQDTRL
Description: Cells. Cell Lines and Cell Culture—Human bronchial epithelial (HBE) cells, homozygous for the […] mutation and its isogenic wild-type were obtained from lung transplants (CF patients) or lung resections (non-CF patients) (kindly provided by L J Galietta within the Italian Cystic Fibrosis Foundation). Cells were maintained at 37° C. in a humidified incubator in an atmosphere containing 5% CO2, and the experiments were done 5 days after plating (21, 22). Stable lentiviral-based transduction of the parental CFBE41o− cells (ΔF508/ΔF508), originally immortalized and characterized by Dr. D. Gruenert and co-workers (32) with either WT-CFTR or ΔF508-CFTR, was performed by Tranzyme, Inc. (Birmingham, AL). […]
The activity of Tα1, either alone or in combination with ivacaftor, has been comparatively assessed with that of lumacaftor on CFBE41o− cells expressing ΔF508 CFTR and on HBE cells from CF patients. To this purpose, cells were treated with Tα1 (100 ng/ml), VX-770 (1 μM) or VX-809 (3 μM) alone or in combination for 24 hours and assessed for CFTR protein expression and function. […] In terms of ion channel activity, Tα1, either alone or in combination with ivacaftor, increased the chloride permeability of ΔF508 CFTR cells between 60 to 70% relative to control (considering WT control as 100% reference value)(B, assessed by a fluorescence assay upon stimulation with fosforkolin, Fsk). […]

[2] = either type of mice (C57BL/6, Cftr−/−)

Ac-Ser-Asp-Ala-Ala-Val-Asp-Thr-Ser-Ser-Glu-Ile-Thr-Thr-Lys-Asp-Leu-Lys-Glu-Lys-Lys-Glu-Val-Val-Glu-Glu-Ala-Glu-Asn-O (Ac-SDAAVDTSSEITTKDLKEKKEVVEEAEN-OH; not fully specified; printed as Ac-Ser-Asp-Ala-Ala-Val-Asp-Thr-Ser-Ser-Glu-Ile-Thr-Thr-Lys-Asp-Leu-Lys-Glu-Lys-Lys-Glu-Val-Val-Glu-Glu-Ala-Glu-Asn-O; listed as Homo sapiens) [Tα1, naturally occurring polypeptide of 28 amino acid; supplied as purified sterile, lyophilized, acetylated polypeptide]
levels of the inflammatory-blocking cytokine IL-1RA in the BAL [1]: increased
levels of IL-1α in the BAL [1, 2]: sharply decreased
levels of IL-1β in the BAL [1, 2]: sharply decreased
expression of TMEM16A in mice with pulmonary aspergillosis (TMEM16A): greatly increased
chloride permeability of ΔF508 CFTR cells relative to control (WT control as 100%) (ΔF508 CFTR; 100 ng/ml Tα1 for 24 hours, forskolin stimulation): approximately 70%
ion channel activity compared to lumacaftor (ΔF508 CFTR; 24 hours): similar

From patent US12083165B2, “Thymosin alpha 1 for use in treatment of cystic fibrosis” (SciClone Pharmaceuticals International (SG) PTE. LTD., priority 2015, dated 2024)
